{"source": "patent US12516356B2", "about": "“Process for the detoxification of lignocellulosic hydrolysate and its use in synthesizing xylitol” (COUNCIL OF SCIENTIFIC AND INDUSTRIAL RESEARCH, priority 2020, dated 2026)", "tested_on": "HepG2 cell lines", "assay": "cytotoxicity studies on HepG2 cell lines", "assay_type": "cell-based", "conditions": "xylitol crystals recovered from fermentation broth"}
{"smiles": "OC[C@@H](O)[C@H](O)[C@@H](O)CO", "note": "[Xylitol crystals, xylitol]", "values": [{"measurement": "toxic effect on HepG2 cell lines (cytotoxicity studies)", "value": "no toxic effect"}]}
